Measured values from patent US7005274B1, “Methods and compositions for diagnosing and treating arthritic disorders and regulating bone mass” (MIGENIX Corp., priority 1999, dated 2006).

Assays:
Assay type in all cases: cell-based, human
[1] = tested on: chondrocytes; assay: Collagen synthesis, [3H]-proline labeling, collagenase-sensitive protein; settings: 72 hours after addition; 0.025 mM antimycin A or non-lethal dose of oligomycin
Description: Collagen production was measured by tritiated proline ([^3H]-proline) biosynthetic protein labeling and measuring of collagenase-sensitive protein production (FIG. 2). Articular chondrocytres or TC28 cells (5×10^5 cells) were plated in 5 ml medium made 0.025 mM in antimycin A (or 0.02 μg/ml oligomycin, see next Example) by addition of the indicated agent every 24 hours. After the mitochondrial inhibitors were added, the cells were cultured for a further 48 hours. Medium was then removed and replaced with serum-free medium containing 5 μl/ml of [^3H]-proline, 50 μg/ml ascorbate and 100 μg/ml β-aminoproprionitrile, and incubation continued for an additional 8 hours.
Medium was then collected and precipitated with 15% trichloroacetic acid (TCA). Cells were extracted in 1 M NaCl, 1 mM N-ethylmaleimide, 0.2 mM phenylmethylsulfonyl fluoride, 0.75 mM EDTA and then precipitated with 15% TCA. The precipitates were washed 3 times with 5% TCA and once with 5% TCA containing 0.5% tannic acid. The pellet was dissolved and resuspended in 0.05 M Tris-HCl, pH 7.6, 5 mM CaCl2, 2.5 mM N-ethylmaleimide. Collagenase-sensitive protein per μg total protein was determined by incubation for 2 hours with 80 units/ml of collagenase, followed by addition of 10% TCA/0.5% tannic acid, and addition of the supernatant to scintillation fluid for standard scintillation counting in the tritium channel.

[2] = tested on: Articular Chondrocytes; assay: Intracellular ATP, luciferase assay; settings: 10 ng/ml TGFβ, 0.025 mM antimycin A, 0.02 μg/ml oligomycin; mean ± SD
Description: Human articular cartilage chondrocytes were obtained by collagenase digestion of articular cartilage samples, and subsequent monolayer culture, essentially as described by Terkeltaub et al. (Arthritis Rheum. 41:2152–2164, 1998). The starting material for these primary cultures was human articular cartilage excised during surgical joint replacement, or obtained at autopsy from normal or osteoarthritic joints. The articular chondrocytes were grown in Dulbecco's modified Eagle's Medium with high glucose (DMEM high glucose, Life Technologies, Inc. Grand Island, N.Y.) with 10% fetal calf serum (FCS), 1% glutamine, 100 U/ml penicillin and 50 μg/ml streptomycin (all reagents from Sigma, St. Louis, Mo., unless otherwise noted). Typically, only first passage cells were used in the studies described herein.
Levels of total cellular ATP were measured by a modification of luciferase-based assays known in the art (Lin et al., Anal. Biochem. 24:531–540, 1968); related assays and modifications may alternatively be used (see, e.g., Turman et al., In Vitro Cell. Dev. Biol. Anim. 32:1–4, 1996, for an assay format that uses a fluorescent plate reader). In brief, 2×10^6 cells were washed and pelleted in 10 ml phosphate-buffered saline (PBS). The cell pellets were snap-frozen in a dry ice/ethanol bath, after which […] of 0.2 M HCl was added, followed by 0.3 ml of 2 mM glycine (pH 9.0). Samples were heated at 100° C. for five minutes, then placed on ice. A standard curve was developed using 0 to 500 pmol of purified ATP (disodium salt). One hundred (100) μl of the cell extract, or purified ATP standard, was added to an equal volume of the ATP assay mixture (containing MgSO4, DTT, EDTA, luciferase and luciferin, all from the Sigma Bioluminescence Assay Kit and all diluted 1:25). Following a 5 second incubation and 15 second integration, samples were read on a TD-20/20 Luminometer (Turner Designs, Sunnyvale, Calif.). […]

[3] = tested on: articular chondrocytes and TC28 cells; assay: Level of glycolysis; settings: 0.025 mM antimycin A or 0.02 μM oligomycin
[4] = tested on: chondrocytes; assay: Proteoglycan synthesis, [35S] labeling; settings: 72 hours after addition; 0.025 mM antimycin A or non-lethal dose of oligomycin
Description: Proteoglycan synthesis was measured by [^35S]-labeling and uptake of the isotope, as well as by biosynthetic incorporation of the isotope (van Osch et al., Matrix Biol. 17:413–424, 1998) into proteoglycans extracted and subsequently purified by column chromatography on Sephadex® G-25 (Pharmacia, Piscataway, N.J.) (FIG. 3). Chondrocytes or TC28 cells (3×10^6) were plated in 30 ml of medium in a 10-cm diameter tissue culture dish and the medium was made 0.025 mM in antimycin (or 0.02 μg/ml oligomycin) every 24 hours for 72 hours. After 48 hours of culture, 20 μCi/ml of [^35S]sodium sulfate was added to each plate in serum-free medium. After a total of 72 hours, the medium was collected and the cells were washed once with phosphate buffered saline (PBS) and then scraped into 0.5 M NaOH and mixed for 48 hours at 4° C. The medium and the cell extract were eluted from Sephadex® (Pharmacia, Piscataway, N.J.) G-25M PD-10 columns with 4M guanidine-HCl. The eluted portion was added to scintillation fluid and counted (n=9 replicates in FIG. 3; *=P<0.05 by Student's t-test).

Compound | depression of collagen synthesis [1] | ATP (pmoles/μg DNA): Articular Chondrocytes [2] [pmoles/μg DNA] | effect on level of glycolysis [3] | depression of proteoglycan synthesis [4]
CC[C@H]1/C=C/C=C/C[C@@H](C)[C@H](O)[C@@](C)(O)C(=O)[C@@H](C)[C@H](O)[C@@H](C)C(=O)[C@@H](C)[C@H](O)[C@@H](C)/C=C/C(=O)O[C@@H]2[C@H](C)[C@H](CC1)O[C@]1(CC[C@H](C)[C@H](C[C@@H](C)O)O1)[C@H]2C [oligomycin] | more than 50% | 221.2 ± 14.0 | without altering the constitutively high level of glycolysis | more than 50%
antimycin A | more than 50% | 93.73 ± 5.9 | without altering the constitutively high level of glycolysis | more than 50%
